Experiments:
[1] = test system: normal bronchial epithelial cell; test: normal bronchial epithelial cell adhesion to LAP (FIG. 3A); type: cell-based
[2] = test system: bleomycin-treated mice; test: Murine bleomycin model; type: in vivo, Mice (C57BL/6)
From the text: It has been previously shown that inhibition of αvβ6 in the lung can be detected though measurement of phospho-SMAD (pSMAD) in alveolar macrophages. Alveolar macrophages are known to operate in a unique niche in the lung, distinct from interstitial macrophages. SMAD3 is a downstream target of the active TGF-β cytokine binding its receptor and in alveolar macrophages it is phosphorylated by homoeostatic levels of TGF-β. Accordingly, it was desirable to know whether inhibition of TGF-β activation using the disclosed compounds would result in reduced SMAD2 and SMAD3 phosphorylation.
Mice (C57BL/6) were divided into healthy (n=15), vehicle-treated (n=15), and test article-treated (n=15 per dose) groups. Mice in the vehicle and test article-treated groups were administered 3 U/kg of bleomycin (Teva Pharmaceuticals; North Wales, Pa.) via oropharyngeal aspiration while under anesthesia on day 0. Healthy animals were administered water in a similar fashion. Starting on day 7, mice in the control group were administered PBS vehicle, 130 μL, by oral gavage, BID for 14 days. Also starting on day 7, mice in the test group were administered compound 5 in PBS by oral gavage, BID for 14 days, at relative dosages of 1×, 2.5× and 5×. […] From day 14 through day 21, 9 of the 15 mice were administered ^2H2O for labeling. All mice were sacrificed on day 21 and tissues were collected. Samples were prepared for analysis either directly from lung tissue, or by bronchoalveolar lavage, which washes out the bronchiolar and alveolar space with saline to produce a bronchoalveolar lavage fluid (BALF) in which 80-90% of cells are alveolar macrophages.

[3] = test system: lung Col1a1 expression; test: Precision cut lung slices from human IPF explants, 3 days, Col1a1 expression; type: cell-based; conditions: human IPF PCLS, 3G9 ≥400 ng/mL, compound 5 179 nM, ALK5 inhibitor 1 μM, FIG. 6C
From the text: Explanted lung tissue was obtained from human IPF subjects and inflated with agarose as described in the preceding examples. Biopsy cores were obtained from the agarose-inflated lung tissue. The biopsy cores were subjected to precision slicing to obtain several hundred μm thick. Individual slices were distributed in a multiwell culture plate and cultured for […] under control (DMSO) and test compound conditions. The viability of the slices over the course of culturing was confirmed by WST-1 assay of mitochondrial activity.

[4] = Single dose pharmacokinetics (SAD), Example B14; type: in vivo, human; conditions: for half-life / Cmax / AUC(0-t) / Tmax: human, oral; for half-life: plasma total drug; for half-life / Cmax / AUC(0-t): geometric mean; for Cmax / AUC(0-t) / Tmax: plasma; for AUC(0-t): read-out: AUC0-24, ng × h/mL; for Tmax: median
From the text: (§1) Accordingly, a study was designed to assess the PK of Compound 5 after a single dose and following a 6-day course of doses, at levels exceeding the dosages used in preceding Examples B12 and B13. This study was designed to assess at these higher doses aspects of the single-dose and steady-state pharmacokinetics of Compound 5.
(§2) This study was a single-center, randomized, double-blind, ascending dose, placebo-controlled study in healthy participants. Each cohort included 10 participants (8 active, 2 placebo). Study participants received single ascending doses (SAD) of Compound 5 of 120, 160, 240, 320, 480, and 640 mg and multiple ascending doses (MAD) of Compound 5 of 80, 120, 160, 240, and 320 mg. Two cohorts of participants at 160 mg were studied in the MAD phase of the study.
Participants received single Compound 5 doses of 120, 160, 240, 320, 480, and 640 mg. A total of 60 participants were enrolled across the dosing groups, with 48 participants who received Compound 5 available for PK analyses. Despite the substantially higher dosages, PK parameters in the dosing groups were consistent with those observed at lower doses in Example B12.

[5] = Multiple dose pharmacokinetics (MAD), Example B14; type: in vivo; conditions: human, plasma, oral; for AUC(0-t): read-out: AUC0−24, ng × h/mL; for Tmax: median
From the text: as §1, §2
Participants received 7 daily doses of Compound 5 80, 120, 160, 240, and 320 mg. A total of 60 participants were enrolled across the dosing groups, with 48 participants who received Compound 5 available for PK analyses. One participant discontinued study drug prior to completing all study procedures. […] Despite the substantially higher dosages, the PK parameters in the dosing groups were consistent with those observed at lower doses in Example B12. Following multiple doses of Compound 5 (oral solution) ranging from 80 to 320 mg QD, median plasma Compound 5 concentrations reached maximum levels after 3 to 4 hours. Geometric mean T1/2 remained relatively unchanged with increasing dose, ranging from 36 to 55 hours.

[6] = target: αvβ6 (Homo sapiens, UniProt P06756+P18564); test: IC50 of αvβ6 adjusted for protein binding
αvβ6, sequence (P06756 31-1048): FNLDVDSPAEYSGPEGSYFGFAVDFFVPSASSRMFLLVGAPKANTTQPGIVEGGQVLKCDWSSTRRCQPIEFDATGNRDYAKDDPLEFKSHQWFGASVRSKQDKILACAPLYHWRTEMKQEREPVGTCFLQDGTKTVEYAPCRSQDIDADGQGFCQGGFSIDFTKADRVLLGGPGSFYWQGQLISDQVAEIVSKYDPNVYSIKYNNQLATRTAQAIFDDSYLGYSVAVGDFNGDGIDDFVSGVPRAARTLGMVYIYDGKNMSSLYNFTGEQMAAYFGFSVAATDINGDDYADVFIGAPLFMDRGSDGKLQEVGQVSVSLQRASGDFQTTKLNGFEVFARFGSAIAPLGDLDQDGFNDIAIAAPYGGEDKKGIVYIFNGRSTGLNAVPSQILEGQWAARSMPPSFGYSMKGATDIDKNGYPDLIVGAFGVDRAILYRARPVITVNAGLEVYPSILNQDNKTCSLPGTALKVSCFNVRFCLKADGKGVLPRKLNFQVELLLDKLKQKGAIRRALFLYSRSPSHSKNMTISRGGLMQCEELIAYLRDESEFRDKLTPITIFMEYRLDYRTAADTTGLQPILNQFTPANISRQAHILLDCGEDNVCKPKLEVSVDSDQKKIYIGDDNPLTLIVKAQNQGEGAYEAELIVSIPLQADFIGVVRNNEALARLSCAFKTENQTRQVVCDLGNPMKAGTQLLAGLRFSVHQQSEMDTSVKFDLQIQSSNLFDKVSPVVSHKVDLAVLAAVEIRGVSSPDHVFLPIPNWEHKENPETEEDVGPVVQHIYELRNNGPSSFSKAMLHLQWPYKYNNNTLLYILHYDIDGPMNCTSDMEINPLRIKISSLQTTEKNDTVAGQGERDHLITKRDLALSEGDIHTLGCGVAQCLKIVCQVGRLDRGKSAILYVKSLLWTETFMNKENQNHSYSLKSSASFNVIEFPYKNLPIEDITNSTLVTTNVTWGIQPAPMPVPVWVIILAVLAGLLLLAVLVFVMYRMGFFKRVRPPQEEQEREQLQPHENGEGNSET
αvβ6, sequence (P18564 22-788): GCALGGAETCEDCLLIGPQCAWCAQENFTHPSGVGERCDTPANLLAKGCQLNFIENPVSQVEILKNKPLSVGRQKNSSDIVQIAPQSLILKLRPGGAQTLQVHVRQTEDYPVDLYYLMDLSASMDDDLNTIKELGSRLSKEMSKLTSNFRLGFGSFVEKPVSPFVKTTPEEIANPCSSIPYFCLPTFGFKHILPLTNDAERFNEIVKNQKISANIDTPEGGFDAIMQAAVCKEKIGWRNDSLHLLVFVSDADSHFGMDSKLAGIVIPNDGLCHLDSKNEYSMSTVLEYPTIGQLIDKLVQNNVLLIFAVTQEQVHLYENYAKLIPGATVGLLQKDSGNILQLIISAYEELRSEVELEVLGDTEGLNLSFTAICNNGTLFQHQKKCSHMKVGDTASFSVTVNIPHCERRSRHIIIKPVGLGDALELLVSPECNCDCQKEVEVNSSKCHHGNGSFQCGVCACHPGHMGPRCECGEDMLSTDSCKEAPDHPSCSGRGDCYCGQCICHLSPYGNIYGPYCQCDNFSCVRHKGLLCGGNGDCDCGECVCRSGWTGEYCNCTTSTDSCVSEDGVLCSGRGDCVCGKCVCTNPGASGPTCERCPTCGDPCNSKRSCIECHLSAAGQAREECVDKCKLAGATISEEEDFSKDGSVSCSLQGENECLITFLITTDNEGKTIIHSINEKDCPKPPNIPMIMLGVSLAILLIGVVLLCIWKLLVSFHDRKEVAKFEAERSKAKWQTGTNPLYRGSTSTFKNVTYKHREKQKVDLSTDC

[7] = 80 mg daily, Day 7, geometric mean
[8] = 120 mg daily, Day 7, geometric mean
[9] = 160 mg daily, Day 7, two cohorts pooled, geometric mean
[10] = 240 mg daily, Day 7, geometric mean
[11] = 320 mg daily, Day 7, geometric mean

half-life ([4]; single dose 120 mg): 37 h
half-life ([4]; single dose 160 mg): 36.5 h
half-life ([4]; single dose 240 mg): 46 h
half-life ([4]; single dose 320 mg): 40.7 h
half-life ([4]; single dose 480 mg): 43.7 h
half-life ([4]; single dose 640 mg): 42.3 h
Cmax ([4]; single dose 120 mg): 2710 ng/mL
AUC(0-t) ([4]; single dose 120 mg): 27400 ng·h/mL
Tmax ([4]; single dose 120 mg): 4 h
Cmax ([4]; single dose 160 mg): 2480 ng/mL
AUC(0-t) ([4]; single dose 160 mg): 28500 ng·h/mL
Tmax ([4]; single dose 160 mg): 1.95 h
Cmax ([4]; single dose 240 mg): 4390 ng/mL
AUC(0-t) ([4]; single dose 240 mg): 48000 ng·h/mL
Tmax ([4]; single dose 240 mg): 3.5 h
Cmax ([4]; single dose 320 mg): 6390 ng/mL
AUC(0-t) ([4]; single dose 320 mg): 71200 ng·h/mL
Tmax ([4]; single dose 320 mg): 4 h
Cmax ([4]; single dose 480 mg): 5080 ng/mL
AUC(0-t) ([4]; single dose 480 mg): 57300 ng·h/mL
Tmax ([4]; single dose 480 mg): 3 h
Cmax ([4]; single dose 640 mg): 6900 ng/mL
AUC(0-t) ([4]; single dose 640 mg): 88300 ng·h/mL
Tmax ([4]; single dose 640 mg): 3.5 h
dose proportionality of total (AUC0-24) and peak (Cmax) exposure ([4]; single oral doses of 120 to 320 mg): increased in a dose-proportional manner
Cmax [5, 7]: 1850 ng/mL
AUC(0-t) [5, 7]: 19200 ng·h/mL
half-life ([5]; 80 mg daily, Day 7, geometric mean, read-out: T1/2 (converted)): 36.1 h
Tmax ([5]; 80 mg daily, Day 7): 3.5 h
Cmax [5, 8]: 4040 ng/mL
AUC(0-t) [5, 8]: 49400 ng·h/mL
half-life ([5]; 120 mg daily, Day 7, geometric mean, read-out: T1/2 (converted)): 55.4 h
Tmax ([5]; 120 mg daily, Day 7): 4.03 h
Cmax [5, 9]: 3790 ng/mL
AUC(0-t) [5, 9]: 49400 ng·h/mL
half-life ([5]; 160 mg daily, Day 7, two cohorts pooled, geometric mean, read-out: T1/2 (converted)): 41.7 h
Tmax ([5]; 160 mg daily, Day 7, two cohorts pooled): 3 h
Cmax [5, 10]: 5140 ng/mL
AUC(0-t) [5, 10]: 63000 ng·h/mL
half-life ([5]; 240 mg daily, Day 7, geometric mean, read-out: T1/2 (converted)): 50.5 h
Tmax ([5]; 240 mg daily, Day 7): 3 h
Cmax [5, 11]: 5730 ng/mL
AUC(0-t) [5, 11]: 74500 ng·h/mL
half-life ([5]; 320 mg daily, Day 7, geometric mean, read-out: T1/2 (converted)): 46 h
Tmax ([5]; 320 mg daily, Day 7): 3.56 h
half-life ([5]; multiple doses 80 to 320 mg QD, read-out: Geometric mean T1/2): 36 to 55 h
IC50 [6]: 10 nM
SMILES: COCCN(CCCCc1ccc2c(n1)NCCC2)CC[C@H](Nc1ncnc2ccccc12)C(=O)O [Compound 5, (S)-4-((2-methoxyethyl) (4-(5,6,7,8-tetrahydro-1,8-naphthyridin-2-yl)butyl)amino)-2-(quinazolin-4-ylamino) butanoic acid]
normal bronchial epithelial cell adhesion to LAP [1]: substantially inhibited
pSMAD3 levels in lung and BALF cells vs. plasma drug exposure ([2]; 14 days after bleomycin, […] dose PO BID 1.5 days, FIGS. 4J, 4K): close inverse relationship
accumulated new collagen (percentage of lung collagen containing 2H-labeled hydroxyproline) ([2]; bleomycin mice, 1× and 5× (p<0.01 vs vehicle), FIG. 4D): dose-dependent reduction
total pulmonary collagen, as measured by μg of hydroxyproline ([2]; bleomycin mice, 1×, […], 5× (p<0.05 vs vehicle), FIG. 4E): reduction in total pulmonary collagen
percent total collagen area in second harmonic generation lung images ([2]; bleomycin mice, 1×, […], 5×, FIG. 4I): substantial, statistically significant dose-dependent reduction
pSMAD3 levels in the lung (SMAD3 phosphorylation) ([2]; bleomycin mice, oral gavage BID 14 days, 1×, […], 5×, FIG. 4C): approximately 50 % of the untreated levels
lung Col1a1 expression [3]: substantial, statistically significant (p<0.01 vs vehicle) decrease
dose proportionality of total and peak exposures ([4]; single doses over the range of 120 to 640 mg): slightly less than dose-proportional manner
